Assay results as given in patent US9546201B2, “MUC-1 cytoplasmic domain peptides as inhibitors of cancer” (DANA-FARBER CANCER INSTITUTE, INC., priority 2008, dated 2017).
Where a SMILES comes first, the peptide text is derived from it. Where no end group is shown, it is not given here. [ ]: non-standard residue; d: D form.

What was measured:
His-MUC1-CD oligomers = molecular target: T1, His-MUC1-CD oligomers (Homo sapiens, UniProt P15941); assay: Oligomer formation of purified His-MUC1-CD (non-reducing SDS-polyacrylamide gel, anti-MUC1-C immunoblot); format: biochemical; settings: 200 μM peptide, 1 h at room temperature
T1 sequence (P15941 1184-1255): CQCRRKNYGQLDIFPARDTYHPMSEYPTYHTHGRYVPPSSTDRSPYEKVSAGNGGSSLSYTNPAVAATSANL
Method: (§1) FIGS. 1A-D. MUC1/CQC peptide blocks MUC1 oligomerization. (FIG. 1A) Schematic representation of the MUC1-C subunit and the 72-amino acid sequence of MUC1-CD (SEQ ID NO: 1) are shown. The N-terminal 15 amino acids (shaded sequence; SEQ ID NO: 3) MUC1/CQC (SEQ ID NO: 63) and mutated MUC1/AQA (SEQ ID NO: 60) peptides were synthesized with the poly-dArg transduction domain. (FIG. 1B) His-MUC1-CD (1.4 mg/ml) was immobilized on a sensor chip in a BIAcore. MUC1/CQC was injected over the chip at 10 μM. Raw binding data were analyzed by BIAevaluation software version 3.0 and fit to a 1:1 Languir binding model. (FIG. 1C) Purified His-MUC1-CD (1.5 mg/ml) was incubated with PBS, 200 μM MUC1/CQC or 200 μM MUC1/AQA for 1 h at room temperature. The proteins were separated in a non-reducing SDS-polyacrylamide gel and analyzed by immunoblotting with anti-MUC1-C. (FIG. 1D) 293 cells were transiently transfected to express an empty vector or GFP-MUC1-CD and Flag-MUC1-CD. At 48 h after transfection, the cells were treated with 5 μM MUC1/CQC or MUC1/AQA for 3 d. The cells were then harvested for immunoblotting with anti-MUC1-C (left panel). […]
The MUC1 cytoplasmic domain (MUC1-CD) contains a CQC motif that is necessary for the formation of oligomers and nuclear localization (Leng et al., 2007). […] Purified His-tagged MUC1-CD forms oligomers as detected by electrophoresis in polyacrylamide gels (FIG. 1C). […]

ZR-75-1 cells = assay: Cell cycle distribution, apoptosis and necrosis by flow cytometry, ZR-75-1; format: cell-based, human; settings: 5 μM; for induction of necrosis: detectable at 72 h, more prominent at 96 h
Method: FIGS. 3A-D. MUC1/CQC peptide induces S phase arrest and necrosis. ZR-75-1 (FIGS. 3A-B) and MCF-7 (FIGS. 3C-D) cells were treated with 5 μM MUC1/CQC or MUC1/AQA for 3 and 4 d. Cells were fixed and analyzed for cell cycle distribution by flow cytometry (FIGS. 3A and 3C). The percentage of cells in G1, S and G2/M phases is included in the panels. Cells were also stained with propidium iodide and analyzed by flow cytometry for necrosis (FIGS. 3B and 3D). The percentage of necrotic cells is included in the panels.
Cells were harvested, washed with PBS, fixed with 80% ethanol, and incubated in PBS containing 40 μg/ml RNAse and 40 μg/ml propidium iodide for 30 min at 37° C. Cell cycle distribution was determined by flow cytometry. Sub-G1 DNA content was assessed by staining ethanol-fixed and citrate buffer-permeabilized cells with propidium iodide and monitoring by flow cytometry as described (Yin et al., 2007). For assessment of necrosis, cells were incubated with 1 μg/ml propidium iodide/PBS for 5 min at room temperature and then monitored by flow cytometry as described (Yin et al., 2007).
To determine whether the MUC1/CQC peptide affects growth, ZR-75-1 cells were treated with 5 μM MUC1/CQC for 72 h and monitored for cell cycle distribution. […] These findings indicate that the MUC1/CQC peptide inhibits growth and induces necrosis of human breast cancer cells.

[1] = molecular target: T2, complexes of GFP-MUC1-CD and Flag-MUC1-CD (Homo sapiens, UniProt P15941); assay: Coprecipitation of GFP-MUC1-CD and Flag-MUC1-CD in transfected 293 cells; format: cell-based; settings: 5 μM peptide for 3 d
T2 construct: expressed in transfected cells; host or cells: 293 cells
T2 sequence (P15941 1184-1255 limits assumed): T1 sequence (P15941 1184-1255)
Method: as §1, with “anti-MUC1-C.” for “anti-MUC1-C. (FIG. 1D) 293 cells were transiently transfected to express an empty vector or GFP-MUC1-CD and Flag-MUC1-CD. At 48 h after transfection, the cells were treated with 5 μM MUC1/CQC or MUC1/AQA for 3 d. The cells were then harvested for immunoblotting with anti-MUC1-C (left panel).”
Whole cell and nuclear lysates were prepared as described (Leng et al., 2007). […] Immunoprecitates and soluble proteins were analyzed by immunoblotting with anti-His (Cell Signaling Technology, Danvers, Mass.), anti-GFP (Millipore, Danvers, Mass.), anti-Flag, anti-MUC1-C (Abl; NeoMarkers, Fremont, Calif.), anti-lamin B (EMD, La Jolla, Calif.) or anti-β-actin (Sigma). Reactivity was detected with horseradish peroxidase-conjugated second antibodies and chemiluminescence. […]

Molecule | oligomer formation of His-MUC1-CD (His-MUC1-CD oligomers) | sub-G1 DNA content (apoptosis) (ZR-75-1 cells) | cell cycle distribution (ZR-75-1 cells; 72 h) | S phase population (ZR-75-1 cells; 96 h) | induction of necrosis (ZR-75-1 cells) | interaction between Flag-MUC1-CD and GFP-MUC1-CD [1]
CC[C@H](C)[C@H](NC(=O)[C@H](CC(=O)O)NC(=O)[C@H](CC(C)C)NC(=O)[C@H](CCC(N)=O)NC(=O)CNC(=O)[C@H](Cc1ccc(O)cc1)NC(=O)[C@H](CC(N)=O)NC(=O)[C@H](CCCCN)NC(=O)[C@H](CCCNC(=N)N)NC(=O)[C@H](CCCNC(=N)N)NC(=O)[C@H](CS)NC(=O)[C@H](CCC(N)=O)NC(=O)[C@H](CS)NC(=O)[C@@H](CCCNC(=N)N)NC(=O)[C@@H](CCCNC(=N)N)NC(=O)[C@@H](CCCNC(=N)N)NC(=O)[C@@H](CCCNC(=N)N)NC(=O)[C@@H](CCCNC(=N)N)NC(=O)[C@@H](CCCNC(=N)N)NC(=O)[C@@H](CCCNC(=N)N)NC(=O)[C@@H](CCCNC(=N)N)NC(=O)[C@H](N)CCCNC(=N)N)C(=O)N[C@@H](Cc1ccccc1)C(=O)N1CCC[C@H]1C(=O)O [MUC1/CQC] (H-[dR][dR][dR][dR][dR][dR][dR][dR][dR]CQCRRKNYGQLDIFP-OH; N-terminus and C-terminus assumed) | substantially decreased oligomer formation | little if any accumulation of cells with sub-G1 DNA content | substantial arrest in S phase | S phase population was decreased | induction of necrosis | disruption of the interaction
MUC1/AQA: control peptide in which the CQC motif was altered to AQA, with poly-dArg transduction domain; SEQ ID NO: 60 ([dR][dR][dR][dR][dR][dR][dR][dR][dR]AQARRKNYGQLDIFP) [reference compound] | little if any effect |  |  |  | not | no apparent effect
